Results reported in patent US8093279B2, “Compound” (priority 2005, dated 2012).

Columns and labels:
[1] = target: T1, Aromatase (Homo sapiens, UniProt P11511); assay: Aromatase activity in JEG3 choriocarcinoma cells (Protocol 6); format: cell-based; conditions: for IC50: JEG3 cells
T1 construct: host or cells: JEG3 choriocarcinoma cells (intact monolayers)
T1 sequence (P11511 1-503): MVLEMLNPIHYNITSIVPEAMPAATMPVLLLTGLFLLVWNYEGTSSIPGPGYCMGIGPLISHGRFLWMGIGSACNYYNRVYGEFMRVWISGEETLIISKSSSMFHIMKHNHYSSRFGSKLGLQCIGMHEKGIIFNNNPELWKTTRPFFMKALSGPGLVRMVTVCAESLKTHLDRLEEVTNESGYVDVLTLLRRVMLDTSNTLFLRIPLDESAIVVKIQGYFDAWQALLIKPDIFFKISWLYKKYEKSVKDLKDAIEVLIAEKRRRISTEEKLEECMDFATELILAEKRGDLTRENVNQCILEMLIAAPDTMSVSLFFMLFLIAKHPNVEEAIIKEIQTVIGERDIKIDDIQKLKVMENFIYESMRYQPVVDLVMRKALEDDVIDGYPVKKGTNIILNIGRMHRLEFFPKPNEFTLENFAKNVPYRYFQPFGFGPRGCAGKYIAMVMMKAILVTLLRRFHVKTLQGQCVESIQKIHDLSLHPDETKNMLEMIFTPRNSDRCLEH
Experimental: Aromatase activity is measured in JEG3 choriocarcinoma cells, obtained from the ATCC.
During the aromatase reaction, ^3H2O is liberated which can be quantified using a liquid scintillation spectrometer (Beckman-Coulter, High Wycombe, Bucks. UK). […] The number of cell nuclei per flask is determined using a Coulter Counter after treating the cell monolayers with Z aponin.
Unpaired Student's t test was used to test the statistical significance of results.
A number of compounds were tested for aromatase and steroid sulphatase inhibition in accordance with the above Protocols 1 and 6.

Row | SMILES | IC50 [1] [nM] | melting point [°C] | JEG3-cells Aromatase, % at single concentration ([1]; @ 1 μM) [% @ 1 μM]
1 | Fc1ccc(-c2ccccc2)cc1Cn1cncn1 [compound 1841] | < 1000 | – | –
2 | N#Cc1ccc(-c2ccc(OCc3ccccc3)cc2)cc1Cn1cncn1 [compound 1457] | < 10000 | – | –
3 | N#Cc1ccc(Cn2cncn2)c(-c2ccccc2)c1 [Compound 51] | < 1000 | – | –
4 | N#Cc1ccc(-c2ccc(O)cc2)cc1Cn1cncn1 [compound 1520] | < 1000 | – | –
5 | N#Cc1ccc(Cn2cncn2)cc1-c1ccc(Cl)c(OS(N)(=O)=O)c1 [Compound 26, 5′-((1H-1,2,4-triazol-1-yl)methyl)-4-chloro-2′-cyanobiphenyl-3-yl sulfamate] | < 1000 | 148 to 150 | –
6 | c1ccc(-c2ccc(Cn3cncn3)cc2)cc1 [compound 1975] | < 10000 | – | –
7 | CN(C)S(=O)(=O)Oc1ccc(-c2cc(Cn3cncn3)ccc2C#N)cc1Cl [Compound 24, 5′-((1H-1,2,4-triazol-1-yl)methyl)-3-chloro-2′-cyanobiphenyl-4-yl dimethylsulfamate] | < 1000 | 119 to 120 | –
8 | Oc1ccc(-c2cccc(Cn3cncn3)c2)cc1 [compound 1387] | < 1000 | – | –
9 | N#Cc1cccc(-c2ccc(C#N)c(Cn3cncn3)c2)c1 [compound 1505] | < 10000 | – | –
10 | c1cc(Cn2cncn2)cc(-c2ccc3ccccc3c2)c1 [compound 1385] | < 1000 | – | –
11 | CC(C)(C#N)c1cc(Cn2cncn2)cc(-c2ccc3ccccc3c2)c1 [compound 1508] | < 1000 | – | –
12 | N#Cc1ccc(-c2ccc3ccccc3c2)cc1Cn1cncn1 [compound 1504] | < 1000 | – | –
13 | N#Cc1ccc(Cn2cncn2)cc1-c1ccc(Cl)c(O)c1 [Compound 25] | < 1000 | 228 to 229 | –
14 | N#Cc1ccc(Cn2cncn2)c(-c2ccc(OS(N)(=O)=O)c(Cl)c2)c1 [Compound 53, 2′-((1H-1,2,4-triazol-1-yl)methyl)-3-chloro-5′-cyanobiphenyl-4-yl sulfamate] | < 1000 | 139 to 142 | –
15 | c1ccc(Oc2ccccc2-c2ccc(Cn3cncn3)cc2)cc1 [compound 1835] | < 1000 | – | –
16 | N#Cc1ccc(Cn2cncn2)cc1-c1ccccc1 [compound 1978] | < 1000 | – | –
17 | N#Cc1cc(Cn2cncn2)ccc1-c1ccc(O)c(Cl)c1 [Compound 49, 4-((1H-1,2,4-triazol-1-yl)methyl)-3′-chloro-4′-hydroxybiphenyl-2-carbonitrile] | < 1000 | 195 to 197 | –
18 | Oc1ccc(-c2cccc(Cn3cncn3)c2)cc1Cl [compound 1519] | < 1000 | – | –
19 | Oc1ccc(-c2ccc(F)c(Cn3cncn3)c2)cc1 [compound 1842] | < 1000 | – | –
20 | CC(C)(C#N)c1cc(Cn2cncn2)cc(-c2cccc(C#N)c2)c1 [compound 1509] | < 1000 | – | –

Row | SMILES | IC50 [1] [nM] | melting point [°C] | JEG3-cells Aromatase, % at single concentration ([1]; @ 1 μM) [% @ 1 μM]
21 | N#Cc1ccc(-c2ccc(C#N)c(Cn3cncn3)c2)cc1 [compound 1510] | < 1000 | – | –
22 | N#Cc1cc(Cn2cncn2)cc(-c2ccccc2)c1 [Compound 34, 5-((1H-1,2,4-triazol-1-yl)methyl)biphenyl-3-carbonitrile] | < 1000 | 109 to 110 | –
23 | Fc1cccc(-c2cccc(Cn3cncn3)c2)c1 [compound 1524] | < 1000 | – | –
24 | c1cc(Cn2cncn2)cc(-c2cccc3c2oc2ccccc23)c1 [compound 1839] | < 1000 | – | –
25 | CC(=O)c1cccc(-c2cccc(Cn3cncn3)c2)c1 [compound 1838] | < 1000 | – | –
26 | Clc1cccc(-c2cccc(Cn3cncn3)c2)c1 [compound 1384] | < 1000 | – | –
27 | c1ccc(-c2ccc(-c3cccc(Cn4cncn4)c3)cc2)cc1 [compound 1388] | < 10000 | – | –
28 | CC(C)(C#N)c1cc(Cn2cncn2)cc(-c2cccc(C(=O)c3ccccc3)c2)c1 [compound 1844] | < 1000 | – | –
29 | CC(C)(C#N)c1cc(Cn2cncn2)cc(-c2ccc(O)cc2)c1 [compound 1521] | < 1000 | – | –
30 | N#Cc1cc(Cn2cncn2)ccc1-c1ccc(O)cc1 [Compound 47] | < 1000 | 168 to 171 | –
31 | CC(C)(C#N)c1cc(Cn2cncn2)cc(-c2ccc(OS(N)(=O)=O)cc2)c1 [Compound 56, 3′-((1H-1,2,4-triazol-1-yl)methyl)-5′-(2-cyanopropan-2-yl)biphenyl-4-yl sulfamate] | < 1000 | 74 to 76 | –
32 | Clc1ccc(-c2cccc(Cn3cncn3)c2)cc1 [compound 1386] | < 1000 | – | –
33 | O=C(c1ccccc1)c1cccc(-c2cccc(Cn3cncn3)c2)c1 [compound 1511] | < 1000 | – | –
34 | COc1ccc(-c2cccc(Cn3cncn3)c2)cc1 [compound 1452] | < 1000 | – | –
35 | N#Cc1ccc(-c2cccc(Cl)c2)cc1Cn1cncn1 [compound 1503] | < 1000 | – | –
36 | NS(=O)(=O)Oc1ccc2cc(-c3cccc(Cn4cncn4)c3)ccc2c1 [compound 2052] | < 10000 | – | –
37 | COc1ccc(-c2cccc(Cn3cncn3)c2)cc1Cl [compound 1512] | < 1000 | – | –
38 | N#Cc1cc(Cn2cncn2)cc(-c2ccc(OS(N)(=O)=O)cc2)c1 [Compound 38, 3′-((1H-1,2,4-triazol-1-yl)methyl)-5′-cyanobiphenyl-4-yl sulfamate] | < 1000 | 166 to 167 | –
39 | N#Cc1cc(Cn2cncn2)cc(-c2ccc(F)cc2)c1 [Compound 35, 5-((1H-1,2,4-triazol-1-yl)methyl)-4′-fluorobiphenyl-3-carbonitrile] | < 1000 | 134 to 135 | –
40 | CC(C)(C#N)c1cc(Cn2cncn2)cc(-c2cccc(Cl)c2)c1 [compound 1507] | < 1000 | – | –

Row | SMILES | IC50 [1] [nM] | melting point [°C] | JEG3-cells Aromatase, % at single concentration ([1]; @ 1 μM) [% @ 1 μM]
41 | N#Cc1ccc(-c2cc(C#N)cc(Cn3cncn3)c2)cc1 [Compound 36, 5-((1H-1,2,4-triazol-1-yl)methyl)biphenyl-3,4′-dicarbonitrile] | < 1000 | 154 to 155 | –
42 | c1ccc(COc2ccc(-c3cccc(Cn4cncn4)c3)cc2)cc1 [compound 1362] | < 10000 | – | –
43 | N#Cc1ccc(-c2ccccc2)cc1Cn1cncn1 [compound 1456] | < 1000 | – | –
44 | N#Cc1ccc(Cn2cncn2)c(-c2ccc(O)c(Cl)c2)c1 [Compound 52, 6-((1H-1,2,4-triazol-1-yl)methyl)-3′-chloro-4′-hydroxybiphenyl-3-carbonitrile] | < 1000 | 243 to 245 | –
45 | N#Cc1cc(Cn2cncn2)ccc1-c1ccccc1 [Compound 46] | < 1000 | – | –
46 | CC(C)(C#N)c1cc(Cn2cncn2)cc(-c2ccccc2)c1 [compound 1506] | < 1000 | – | –
47 | N#Cc1ccc(-c2cccc(OS(N)(=O)=O)c2)cc1Cn1cncn1 [Compound 29, 3′-((1H-1,2,4-triazol-1-yl)methyl)-4′-cyanobiphenyl-3-yl sulfamate] | – | 137 to 138 | 63.4 ± 2.1
48 | CN(C)S(=O)(=O)Oc1ccc(-c2cc(Cn3cncn3)ccc2C#N)cc1 [Compound 21, 5′-((1H-1,2,4-triazol-1-yl)methyl)-2′-cyanobiphenyl-4-yl dimethylsulfamate] | < 1000 | – | –
49 | N#Cc1ccc(-c2cccc(O)c2)cc1Cn1cncn1 [compound 1843] | < 1000 | – | –
50 | Oc1cccc(-c2cccc(Cn3cncn3)c2)c1 [compound 1840] | < 1000 | – | –
51 | Fc1ccc(-c2cccc(Cn3cncn3)c2)cc1 [compound 1525] | < 1000 | – | –
52 | Clc1cc(-c2cccc(Cn3cncn3)c2)ccc1OCc1ccccc1 [compound 1502] | < 10000 | – | –
53 | c1ccc(-c2cccc(Cn3cncn3)c2)cc1 [compound 1361] | < 1000 | – | –
54 | N#Cc1ccc(-c2cccc(Cn3cncn3)c2)cc1 [compound 1459] | < 1000 | – | –
55 | N#Cc1cc(Cn2cncn2)cc(-c2ccc(O)cc2)c1 [Compound 37, 5-((1H-1,2,4-triazol-1-yl)methyl)-4′-hydroxybiphenyl-3-carbonitrile] | < 1000 | 186 to 187 | –
56 | N#Cc1cccc(-c2cccc(Cn3cncn3)c2)c1 [compound 1458] | < 1000 | – | –
57 | COc1ccc2cc(-c3cccc(Cn4cncn4)c3)ccc2c1 [compound 1981] | < 1000 | – | –
58 | N#Cc1cc(Cn2cncn2)cc(-c2ccc(O)c(Cl)c2)c1 [Compound 39] | < 1000 | 208 to 209 | –
